Molecules are shown by their SMILES. Calls of active or inactive are those of the source. The calls are words filed in the database; no cut-off is given here.

One compound from ChEMBL document CHEMBL2157879, “Improving the affinity of naphthalene diimide ligand to telomeric DNA by incorporating Zn²⁺ ions into its dipicolylamine groups” (Bioorg Med Chem, 2012) can be followed below.

Experiment [1] concerns Nucleic Acid. As to the kind of experiment: Binding affinity to AGGG(TTAGGG)3 G-quadruplex in Tris-HCl buffer by UV-vis spectrophotometric titration method in presence of 100 mM KCl. It is filed as nucleic-acid assay.
Experiment [2] concerns Nucleic Acid. As to the kind of experiment: Binding affinity to biotin-labeled AGGG(TTAGGG)3 at 1 to 960 nM by SPR analysis in presence of […]. Format: nucleic-acid assay. Background: SPR reads the build-up and loss of mass on a sensor chip optically.
The test system of experiment [3] is Nucleic Acid. The experiment in a line: Binding affinity to TAGGG(TTAGGG)3 G-quadruplex in Tris-HCl buffer by spectrophotometric titration method in presence of 100 mM KCl. It is filed as nucleic-acid assay.
Experiment [4] deals with Nucleic Acid. As to the kind of experiment: Stabilization of AGGG(TTAGGG)3 G-quadruplex in Tris-HCl buffer at DNA/ligand molar ratio 1 to 4 by CD titration method in presence of 100 mM KCl. Format: nucleic-acid assay.
For experiment [5], the system named is Nucleic Acid. The experiment in a line: Binding affinity to biotin-labeled AGGG(TTAGGG)3 at 1 to 960 nM by SPR analysis in presence of 0.15 mM NaCl. Format: nucleic-acid assay.
For experiment [6], the system named is Nucleic Acid. As to the kind of experiment: Binding affinity to biotin-labeled TAGGG(TTAGGG)3 at 1 to 960 nM by SPR analysis in presence of 0.15 mM NaCl. It is filed as nucleic-acid assay.
Experiment [7] relates to Nucleic Acid. The experiment in a line: Binding affinity to TAGGG(TTAGGG)3 G-quadruplex in Tris-HCl buffer assessed as change in melting temperature at 3 uM by CD titration method in presence of 100 mM NaCl. Format: nucleic-acid assay.
The subject of experiment [8] is Nucleic Acid. As to the kind of experiment: Stabilization of TAGGG(TTAGGG)3 G-quadruplex in Tris-HCl buffer at DNA/ligand molar ratio 1 to 4 by CD titration method 100 mM KCl. It is filed as nucleic-acid assay.
Experiment [9] concerns Nucleic Acid. As to the kind of experiment: Binding affinity to AGGG(TTAGGG)3 G-quadruplex in Tris-HCl buffer assessed as change in melting temperature at 3 uM by CD titration method in presence of 100 mM KCl. Format: nucleic-acid assay.
The subject of experiment [10] is Nucleic Acid. As to the kind of experiment: Binding affinity to ds AGGG(TTAGGG)3 in Tris-HCl buffer assessed as melting temperature at DNA/compound molar ratio 1:2 by CD titration method in presence of 100 mM KCl (reference value: 58 degC). Format: nucleic-acid assay.
Experiment [11] relates to Nucleic Acid. The experiment in a line: Binding affinity to TAGGG(TTAGGG)3 G-quadruplex in Tris-HCl buffer by UV-vis spectrophotometric titration method in presence of 100 mM KCl. Format: nucleic-acid assay.
For experiment [12], the system named is Nucleic Acid. As to the kind of experiment: Binding affinity to AGGG(TTAGGG)3 G-quadruplex in Tris-HCl buffer by spectrophotometric titration method in presence of 100 mM KCl. It is filed as nucleic-acid assay.
For experiment [13], the system named is Nucleic Acid. As to the kind of experiment: Binding affinity to AGGG(TTAGGG)3 G-quadruplex in Tris-HCl buffer assessed as change in melting temperature at 3 uM by CD titration method in presence of 100 mM NaCl. Format: nucleic-acid assay.
Experiment [14] relates to Nucleic Acid. The experiment in a line: Binding affinity to biotin-labeled TAGGG(TTAGGG)3 at 1 to 960 nM by SPR analysis in presence of […]. It is filed as nucleic-acid assay.
Experiment [15] deals with Nucleic Acid. As to the kind of experiment: Binding affinity to TAGGG(TTAGGG)3 G-quadruplex in Tris-HCl buffer assessed as change in melting temperature at 3 uM by CD titration method in presence of 100 mM KCl. It is filed as nucleic-acid assay.
The target of experiment [16] is Telomerase reverse transcriptase (Homo sapiens, UniProt O14746). As to the kind of experiment: Inhibition of telomerase-mediated primer elongation by gel electrophoresis-based TRAP assay.
Chain of Telomerase reverse transcriptase (O14746 whole entry): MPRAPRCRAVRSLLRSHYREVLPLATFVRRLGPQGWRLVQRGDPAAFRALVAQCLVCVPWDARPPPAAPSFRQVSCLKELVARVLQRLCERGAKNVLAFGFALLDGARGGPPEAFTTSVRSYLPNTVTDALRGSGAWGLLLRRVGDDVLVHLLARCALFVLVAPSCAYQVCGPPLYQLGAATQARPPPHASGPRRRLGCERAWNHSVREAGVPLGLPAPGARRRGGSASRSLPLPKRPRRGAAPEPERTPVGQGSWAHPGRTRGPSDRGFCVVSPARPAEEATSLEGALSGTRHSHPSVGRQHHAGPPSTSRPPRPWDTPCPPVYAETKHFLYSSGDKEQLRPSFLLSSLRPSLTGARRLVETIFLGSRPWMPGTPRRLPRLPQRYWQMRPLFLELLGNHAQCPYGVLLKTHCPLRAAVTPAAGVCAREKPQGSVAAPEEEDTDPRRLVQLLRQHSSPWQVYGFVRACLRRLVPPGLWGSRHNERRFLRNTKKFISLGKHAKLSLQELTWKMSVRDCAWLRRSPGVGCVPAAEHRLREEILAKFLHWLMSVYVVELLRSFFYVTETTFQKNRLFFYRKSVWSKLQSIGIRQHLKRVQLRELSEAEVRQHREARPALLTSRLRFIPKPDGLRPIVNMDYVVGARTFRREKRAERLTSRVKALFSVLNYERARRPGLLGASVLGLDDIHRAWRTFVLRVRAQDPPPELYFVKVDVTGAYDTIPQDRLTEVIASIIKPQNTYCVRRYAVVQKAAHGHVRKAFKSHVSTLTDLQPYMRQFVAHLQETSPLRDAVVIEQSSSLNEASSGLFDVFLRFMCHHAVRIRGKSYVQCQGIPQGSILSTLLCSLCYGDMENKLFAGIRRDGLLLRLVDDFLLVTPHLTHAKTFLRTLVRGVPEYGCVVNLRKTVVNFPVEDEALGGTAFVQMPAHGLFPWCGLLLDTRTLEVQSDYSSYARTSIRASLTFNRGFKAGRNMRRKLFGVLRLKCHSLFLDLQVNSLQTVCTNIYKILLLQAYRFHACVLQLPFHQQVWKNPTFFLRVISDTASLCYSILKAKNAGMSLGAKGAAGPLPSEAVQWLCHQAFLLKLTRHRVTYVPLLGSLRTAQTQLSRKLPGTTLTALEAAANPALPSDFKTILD
Experiment [17] relates to Nucleic Acid. As to the kind of experiment: Binding affinity to ds AGGG(TTAGGG)3 in Tris-HCl buffer after 2 hrs by UV-vis spectrophotometric titration method in presence of 100 mM KCl. It is filed as nucleic-acid assay.

Turning to `CN(CCCN(Cc1ccccn1)Cc1ccccn1)CCCN1C(=O)c2ccc3c4c(ccc(c24)C1=O)C(=O)N(CCCN(C)CCCN(Cc1ccccn1)Cc1ccccn1)C3=O`, the outcome in the experiment on Nucleic Acid [1], in the experiment with Nucleic Acid [5], in the experiment on Nucleic Acid [6] and in the experiment on Nucleic Acid [11] was inactive. The result with Nucleic Acid [2], in the experiment with Nucleic Acid [4], in the experiment with Nucleic Acid [8] and in the experiment on Nucleic Acid [14] was Active. Besides, the K worked out at 2.8 µM with Nucleic Acid [3], 1.1 µM in the experiment on Nucleic Acid [12] and 0.9 µM in the experiment on Nucleic Acid [17]. In addition, the ΔTm (commonly the shift of the melting midpoint relative to a reference) in the experiment with Nucleic Acid [7] was 1 °C; in the experiment with Nucleic Acid [9] it was 12 °C; in the experiment on Nucleic Acid [13], 1 °C; with Nucleic Acid [15], 13 °C. Moreover, the Tm with Nucleic Acid [10] came out at 66 °C. Moreover, it took 4 µM to reach a half-maximal effect in experiment [16] (EC50).
